By viability is commonly meant a read-out of living cells in per cent, often relative to untreated cells.

From US20240139125A1 (INDUSTRIAL COOPERATION FOUNDATION JEONBUK NATIONAL …, priority 2020, published 2024) come the findings set out here.

Data set [1] is described as follows: Cell viability for BIA and analogues, DU145 cell line. The class given is cell-based. The following applies: human; for viability at 10 µM: DU145, 10 uM; for viability at 20 µM: DU145, 20 uM; for viability: DU145, 50 rpm. The method, then:
(§1) The compound prepared in Example 15 was treated with HT1080 fibrosarcoma cell line at 5 μM and 10 μM and cell viability was measured. In addition, the compound prepared in Example 15 on the DU145 prostate cancer cell line was treated with 10 μM, 20 μM, and 30 μM and cell viability was measured (see Table 2, Table 3).

The nature of data set [2]: Cell viability for BIA and analogues, HT1080 cell line. The class given is cell-based. The following applies: human, HT1080 fibrosarcoma cells; for viability at 5 µM: HT1080, 5 uM; for viability at 10 µM: HT1080, 10 uM. As for the experimental part: HT1080 MDA-MB-231, SKBR3 and MCF7 cell lines were cultured in a 37° C., 5% CO2 incubator in a medium with 10% Fetal Bovine Serum, 1% penicillin and streptomycin (100 U) added to DMEM.
as §1

The subject of another data set is SARS-CoV2 virus. As to the kind of experiment: MTT cell viability of Vero E6 cells infected with SARS-CoV2. The following applies: Severe acute respiratory syndrome coronavirus 2, Vero C1008, 24 h, Vero E6, SARS-CoV2 0.1 MOI, 500 nM, 24 hours after treatment; control DMSO-S 66.52±2.28%. The class given is cell-based. The method, then: Vero E6 cells, monkey kidney cell masters, were dispensed at 1×10^4 cells/well per well in 96 well plates and incubated at 37° C., 5% CO2 incubators for 24 hours. SARS-CoV2 to infect Vero E6 cells was S ARS-CoV 43326 distributed from the National Pathogen Resource Bank, and DMEM (2% FBS, 1% antibiotic-antimycotic) medium was dispensed at 100 μL/well to infect 0.1 MOI. For 1 hour The virus was removed after 1 hour of infection in a 37° C., 5% CO2 incubator.
Next, samples prepared so that BIA or analogue compounds were finally 500 nM were dispensed 100 μL/well, including the culture medium, and then treated in a 37° C., 5% CO2 incubator for 24 hours. In the same way, the group treated with 2 μM, 5 μM, or 10 μM of Remdesivir (Rem) was a positive control.
Check the condition of the cells, add 100 μL/well of 0.5 mg/ml MTT solution, react in a 37° C., 5% CO2 incubator for 4 hours, wash out the media, and DMSO to the cells by 100 μL/well After sufficient dissolution, absorbance was measured at 540 nm with a plate reader to evaluate cell viability.
To confirm the possibility of viral prevention and therapeutic effects of BIA and its analogue compounds, 500 nM treatment of BIA analogue at the same time as viral infection, and then MTT assay whether the viability of cells against viral infection is improved after 24 hours. The results confirmed are shown in the graph of FIG. 82.

In data set [3] the test system is binding between mTORC2 and ribosomes. Put plainly: PLA of mTORC2-ribosome binding with Ca2+ chelators. In kind it is cell-based. The following applies: HT1080 cells, 10 μM. The method, then: FIG. 46A is the PLA result between the indicated proteins (fine and bright spots) in HT1080 cells treated with BAPTA-AM (10 μM), BAPTA (10 μM), and EGTA-AM (10 μM). The scale bar represents 15 μm. The graph on the right quantifies the fine, bright points (n=3, independent experiment). Data were expressed as mean±SD. **p<0.01; ****p<0.0001, Tukey's post hoc test after member ANOVA.
The role of Ca^2+ in mTORC2 activation was investigated. Ca^2+ depletion by BAPTA acetoxymethyl ester (BAPTA-AM) rather than BAPTA or slow Ca^2+ chelator (ie, EGTA-AM) blocked the binding between mTORC2 and ribosomes as shown in PLA analysis results. (See FIG. 46A).

In a further data set the test system is BAL inflammatory cells. As to the kind of experiment: Aspergillus-infected asthmatic mouse model, BAL cells and lung histology. In kind it is in vivo. The following applies: asthma-inducing group; BIA 0.1 mg/kg and 0.01 mg/kg, IC87114 1 mg/kg, intratracheal. The source says: FIG. 80A and FIG. 80B show mice that were infected with aspergillus with or without BIA, or IC87114, fixing the tissue to 4% formalin, injecting paraffin to make blocks, and then cutting into 4 μm thick to react to buffer and performing hematoxylin-eosin staining. The observation result (A) and the observation result (B) by PAS staining are shown.
The result is quantified by counting the total number of cells of living BAL fluid, excluding dead cells stained in trypan blue.
A. fumigatus-induced allergic pulmonary inflammation To establish the model, mice were treated with 10 μg of A. fumigatus crude antigen extract (Greer Laboratories, Cat # XPM3D3A4, Lenoir, NC, USA) with fungal substance inactivated. 0.2 ml of incomplete Freund's adjuvant (Sigma-Aldrich, Cat # F5506-6X) in regular saline It was dissolved and mixed, and half of the preparation was deposited in the peritoneal cavity and the rest was delivered subcutaneously. After 2 weeks, mice received 20 μg of A. fumigatus antigen dissolved in normal saline through the intranasal route, after an intranasal attack After 4 days, 20 μg of A. Fumigatus antigen dissolved in normal saline was treated via the endotracheal route. Control mice were administered only saline at the same time point in time through the same route and treated with the same number of conidia. […]

The test system of data set [4] is BI-1 (TMBIM6). Put plainly: HT1080 xenograft with SAMiRNA knockdown of BI-1. In kind it is in vivo, nude mice. As to conditions: 1 mg/kg, intravenously in the tail every 3 days. As for the experimental part: FIGS. 13A-13D show the volume, weight, and size of tumors derived from HT1080 in TMBIM6-target SAMiRNA, control SAMiRNA or nude mice injected with saline solution (n=5 mice per group) through the tail vein. Data were expressed as mean±SD. *p<0.05, ***p<0.001, ****p<0.0001, Bonferroni's post hoc test (B) after binary ANOVA, member ANOVA followed by Tukey's post hoc test.
In culture, exponentially growing BI-1 (TMBIM6) knockout and WT HT1080 cells were treated with trypsin and quantified through trypan blue staining differentiation, and 3-5×10^6 cells were resuspended in 0.1 ml PBS. Cells were injected subcutaneously into the flanks of each mouse. 5×10^6 cells were injected into 0.1 ml PBS for SMAiRNA or BIA treatment. When the weight of the tumor reaches about 100 mg (7-10 days after inoculation), mice are randomly assigned 1 mg/kg BI-1 SAMiRNA diluted in saline, 1 mg/kg BIA diluted in DMSO (final concentration: 10% v/v) or vehicle (saline solution or DMSO, 10% v/v) was divided into groups.
SAMiRNA was administered intravenously in the tail every 3 days and BIA was injected intraperitoneally 5 days per week over 3 weeks. […].
After 25-28 days, the mice were euthanized, solid tumors were incised, and tumor volumes were recorded. Tumor size was measured with a caliper. The tumor volume (mm^3) was calculated by the formula [(shortest diameter)2×longest diameter]/2.

The subject of data set [5] is BI-1 (TMBIM6). Put plainly: TMBIM6-GCaMP3 fluorescence, calcium released through BI-1. In kind it is cell-based. The following applies: 10 μM, compared with DMSO control.
The test system of data set [6] is AKT serine phosphorylation (S473). As to the kind of experiment: AKT phosphorylation by Western blotting. The following applies: BIA analogues, 10 μM. The class given is cell-based. The method, then:
This is AKT signaling key to cancer cell growth, and BIA and its analogues tend to inhibit it. Only representative experimental results were presented. Data were expressed as mean±SD. After one-way ANOVA, Tukey's post hoc test is conducted.
After cell recovery, cell lytic buffer (10 mM Tris-Cl (pH 7.4), 5 mM EDTA, 130 mM NaCl, 1% Triton X-100) and protease inhibitor mix protease inhibitor cocktail (protease inhibitor cocktail and phosphatase inhibitor cocktail) were added and left at 4° C. for 30 minutes. After breaking the cells with ultrasound, they were centrifuged at 13,000× g at 4° C. for 30 minutes, and then the supernatant was taken, and the concentration was quantified using a protein quantification kit (Bio-Rad Laboratories, Hercules, CA, USA). 20 ug of the obtained protein was electrophoresis with polyacrylamide gel electrophoresis (SDS-PAGE) followed by electrotransfer to PVDF membrane (Bio-Rad). The membrane was blocked at room temperature for 1 hour with a TBS-T solution (20 mM Tris (pH 7.5), 137 mM NaCl, 0.05% Triton X-100) containing 5% skim milk. Then, after switching to a solution containing the primary antibody, it was reacted at 4° C. The membrane after the reaction was washed three times with TBS-T solution, reacted with a secondary antibody, and then luminesced using an ECL kit and autoradiography. […]

On to `Nc1ccccc1C(=O)/C=C/c1ccncc1` [GM-90228, (E)-1-(2-aminophenyl)-3-(pyridin-4-yl)prop-2-en-1-one], for which, in data set [1], the viability at 10 µM came out at 54.1%, the viability at 20 µM amounted to 37.8% and the viability is 15.1%. Besides, in data set [2], the viability at 5 µM is 30.4% and the viability at 10 µM is 22.8%. Moreover, in the data set on SARS-CoV2 virus, the viability at 0.5 µM worked out at 74.3 ± 3.43%.
Consider `CC(=O)OCOC(=O)CN(CC(=O)OCOC(C)=O)c1ccccc1OCCOc1ccccc1N(CC(=O)OCOC(C)=O)CC(=O)OCOC(C)=O` [BAPTA-AM, BAPTA acetoxymethyl ester], for which, in data set [3], the “binding between mTORC2 and ribosomes” value is “blocked”.
Consider `Cc1ccccc1-n1c(Cn2cnc3c(N)ncnc32)nc2cccc(C)c2c1=O` [IC87114, reference compound], for which, in the data set with BAL inflammatory cells, the “all BAL inflammatory cells” value is “inhibited”.
Turning to `Nc1ccccc1C(=O)/C=C/c1cccc([N+](=O)[O-])c1` [GM-90129, (E)-1-(2-aminophenyl)-3-(3-nitrophenyl)prop-2-en-1-one], in data set [1], the viability at 10 µM stood at 91.4%, the viability at 20 µM came to 90.2% and the viability turned out to be 61.4%. In the data set with SARS-CoV2 virus, the viability at 0.5 µM was found to be 77.7 ± 3.6%.
On to “SAMiRNA: self-assembled micelle inhibitory RNA against BI-1, sequence 5′-AAGGCACUGCAUUGAUCUUU-3′, obtained from Bioneer (siRNA; micelle-forming conjugate, chemistry not fully specified)”, for which the “tumor formation and Ki67 expression” value in the data set with BI-1 (TMBIM6) [4] is reported as “reduced”.
As to `CC(C)(C)OC(=O)Nc1cccc(/C=C/C(=O)c2ccccc2N)c1` [GM-90299, tert-butyl (E)-(3-(3-(2-aminophenyl)-3-oxoprop-1-en-1-yl)phenyl) carbamate], in the data set on BI-1 (TMBIM6) [5], the “inhibition of calcium release through BI-1 (TMBIM6-GCaMP3 fluorescence)” value is “stronger inhibitory effect”. In addition, in data set [1], the viability at 10 µM came out at 82.2%, the viability at 20 µM was 59% and the viability was found to be 17.2%. In addition, in data set [2], the viability at 5 µM came to 93.2% and the viability at 10 µM was found to be 20.1%.
Regarding `COc1cc(N)c(C(=O)/C=C/c2cccc([N+](=O)[O-])c2)cc1OC` [GM-90254, (E)-1-(2-amino-4,5-dimethoxyphenyl)-3-(3-nitrophenyl)prop-2-en-1-one], the “inhibition of calcium release through BI-1 (TMBIM6-GCaMP3 fluorescence)” value with BI-1 (TMBIM6) [5] was “stronger inhibitory effect”. Also, in data set [1], the viability at 10 µM was 61.1%, the viability at 20 µM came to 31.5% and the viability came to 8.51%. For the same compound, in data set [2], the viability at 5 µM was found to be 14.7% and the viability at 10 µM is 8.59%.
In the case of `O=C(/C=C/c1cccc([N+](=O)[O-])c1)c1ccccc1` [GM-90128, (E)-3-(3-nitrophenyl)-1-phenylprop-2-en-1-one], the AKT serine phosphorylation entry in data set [6] is recorded as “inhibited”. For the same compound, in data set [1], the viability at 10 µM is 81%, the viability at 20 µM was 72.2% and the viability was 62.2%. In addition, in data set [2], the viability at 5 µM came to 102% and the viability at 10 µM was 57.8%.
